Laboratory results published in article PMC7289955, “The Role of Dopamine in the Stimulant Characteristics of Novel Psychoactive Substances (NPS)—Neurobiological and Computational Assessment Using the Case of Desoxypipradrol (2-DPMP)” (Frontiers in Pharmacology, 2020).

Target: T1, dopamine transporter (DAT) (Rattus norvegicus, UniProt P23977)
T1 construct: gene Slc6a3; native DAT in rat brain sections (nucleus accumbens shell and caudate-putamen)
Assay: […]RTI-121 displacement, quantitative autoradiography on rat brain sections

T1 sequence (P23977 whole entry): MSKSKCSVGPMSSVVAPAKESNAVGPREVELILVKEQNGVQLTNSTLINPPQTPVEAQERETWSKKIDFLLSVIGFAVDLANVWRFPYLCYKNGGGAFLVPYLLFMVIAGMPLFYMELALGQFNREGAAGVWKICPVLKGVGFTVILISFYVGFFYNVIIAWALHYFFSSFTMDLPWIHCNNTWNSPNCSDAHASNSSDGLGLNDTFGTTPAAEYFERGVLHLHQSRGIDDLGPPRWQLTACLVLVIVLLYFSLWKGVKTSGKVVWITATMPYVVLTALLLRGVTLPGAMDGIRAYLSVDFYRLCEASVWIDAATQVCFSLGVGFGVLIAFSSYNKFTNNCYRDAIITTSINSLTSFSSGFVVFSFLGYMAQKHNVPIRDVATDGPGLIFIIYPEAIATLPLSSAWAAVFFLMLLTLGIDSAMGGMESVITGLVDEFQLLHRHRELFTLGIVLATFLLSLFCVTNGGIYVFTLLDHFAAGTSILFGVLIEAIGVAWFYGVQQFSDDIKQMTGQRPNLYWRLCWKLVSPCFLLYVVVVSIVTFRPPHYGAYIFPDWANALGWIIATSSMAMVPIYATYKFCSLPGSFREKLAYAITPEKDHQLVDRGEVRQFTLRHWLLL

c1ccc(C(c2ccccc2)C2CCCCN2)cc1 (stereo not shown) [2-DPMP, 2-diphenylmethylpiperidine]
IC50: 565 nM
